In brackets after ≈: the same amount, converted by molar mass. Values belong to the compound of their own block, whether it stands above or below them.
What was measured:
Alpha-glucosidase [1] = target: T1, Alpha-glucosidase (Saccharomyces cerevisiae S288c, UniProt P53341+P38158+P07265); assay: Inhibition of Saccharomyces cerevisiae alpha-glucosidase assessed as release of p-nitrophenol using pNPG as substrate preincubated for 15 mins followed by substrate addition and measured after 30 mins by spectrophotometric analysis; format: protein assay
Alpha-glucosidase [2] = target: T1, Alpha-glucosidase; assay: Inhibition of Saccharomyces cerevisiae alpha-glucosidase assessed as release of p-nitrophenol using pNPG as substrate preincubated for 5 mins followed by substrate addition and measured after 30 mins by absorbance assay; format: protein assay
Alpha glucosidase [3] = target: T2, Alpha glucosidase (Homo sapiens, UniProt O43451+P10253+P14410+Q2M2H8); assay: Inhibition of alpha-glucosidase (unknown origin) using PNPG as substrate incubated for 30 mins by absorbance assay; format: protein assay
Alpha-glucosidase [4] = target: T1, Alpha-glucosidase; assay: Inhibition of Saccharomyces cerevisiae alpha-glucosidase using PNPG as substrate incubated for 30 mins by spectrophotometric assay; format: protein assay
Alpha-glucosidase [5] = target: T1, Alpha-glucosidase; assay: Inhibition of Saccharomyces cerevisiae alpha-glucosidase using maltose as substrate incubated for 30 mins by spectrophotometric assay; format: protein assay
Alpha-glucosidase [6] = target: T1, Alpha-glucosidase; assay: Mixed-type inhibition of Saccharomyces cerevisiae alpha-glucosidase using PNPG as substrate incubated for 30 mins by Lineweaver-Burk double-reciprocal plot analysis; format: protein assay
Alpha-glucosidase [7] = target: T1, Alpha-glucosidase; assay: Inhibition of yeast alpha-glucosidase assessed as release of p-nitrophenol using PNPG as substrate preincubated for 10 mins followed by substrate addition and measured after 35 mins by microplate photometer analysis; format: protein assay
Alpha-glucosidase [8] = target: T1, Alpha-glucosidase; assay: Inhibition of Saccharomyces cerevisiae alpha-glucosidase using PNPG as substrate preincubated for 15 mins followed by substrate addition and measured after 30 mins by spectrophotometric assay; format: protein assay
Alpha glucosidase [9] = target: T2, Alpha glucosidase; assay: Inhibition of alpha-glucosidase (unknown origin) at 100 uM; format: protein assay
Alpha glucosidase [10] = target: T2, Alpha glucosidase; assay: Inhibition of alpha-glucosidase (unknown origin) at 40 uM; format: protein assay
Alpha-glucosidase [11] = target: T1, Alpha-glucosidase; assay: Inhibition of Saccharomyces cerevisiae alpha-glucosidase assessed as release of p-nitrophenol using pNPG as substrate preincubated for 15 mins followed by substrate addition and measured after 15 mins by plate reader analysis; format: protein assay
Alpha-glucosidase [12] = target: T1, Alpha-glucosidase; assay: Inhibition of yeast alpha-glucosidase using p-nitrophenyl-alpha-D-glucopyranoside as substrate incubated for 30 mins by spectrophotometric assay; format: protein assay
Rattus norvegicus = species on record: Rattus norvegicus; assay: Inhibition of rat intestine alpha-glucosidase using MUG as substrate at 100 uM preincubated for 15 mins followed by substrate addition and measured after 30 mins by fluorescence microplate reader analysis; format: tissue-based; conditions: time 45.0 min
Alpha glucosidase [13] = target: T2, Alpha glucosidase; assay: Inhibition of alpha-glucosidase (unknown origin) using PNPG as substrate preincubated for 15 mins followed by substrate addition by microplate reader assay; format: protein assay
Alpha-glucosidase [14] = target: T1, Alpha-glucosidase; assay: Inhibition of Saccharomyces cerevisiae alpha-glucosidase assessed as release of p-nitrophenol using pNPG as substrate preincubated for 15 mins followed by substrate addition and measured after 15 mins by spectrophotometric analysis; format: protein assay

Structure (SMILES): COC(=O)c1cc(O)cc2oc3cc(C)cc(O)c3c(=O)c12
IC50 (Alpha-glucosidase [1]): 2980 µM

Structure (SMILES): O=c1c2c(O)cc(O)cc2oc2ccc(O)c(O)c12
IC50 (Alpha glucosidase [3]): 23.2 µM

Structure (SMILES): C=C(C)/C=C/c1c(O)cc2oc3cc(O)c(OC)c(CC(=O)C(=C)C)c3c(=O)c2c1O
IC50 (Alpha-glucosidase [4]): 9.8 µM
IC50 (Alpha-glucosidase [5]): 85.7 µM
Ki (Alpha-glucosidase [6]): 8.1 µM

Structure (SMILES): COc1c(CC=C(C)C)c(O)c2c(=O)c3c(O)ccc(O)c3oc2c1CC=C(C)C
IC50 (Alpha-glucosidase [8]): 76 µM

Structure (SMILES): O=c1c2cc(O)ccc2oc2cccc(O)c12
IC50 (Alpha-glucosidase [8]): 145 µM
IC50 (Alpha-glucosidase [11]): 35.8 µg/mL (≈ 157 µM)

Structure (SMILES): C=C(C)/C=C/c1c(O)c(CC=C(C)C)c2oc3c(O)cccc3c(=O)c2c1O
IC50 (Alpha-glucosidase [4]): 21.5 µM
IC50 (Alpha-glucosidase [5]): 137.2 µM
Ki (Alpha-glucosidase [6]): 12.3 µM

Structure (SMILES): COC(=O)c1c(O)ccc2oc3cc(C(=O)O)cc(O)c3c(=O)c12
IC50 (Alpha-glucosidase [1]): 260 µM

Structure (SMILES): COc1c(O)cc2oc3cc(O)c(C/C=C(\C)COC(C)=O)c(O)c3c(=O)c2c1C/C=C(/C)CC=C(C)C
IC50 (Alpha-glucosidase [12]): 18.2 µM
IC50 (Alpha-glucosidase [7]): 70.3 µM

Structure (SMILES): O=c1c2ccccc2oc2cc(O)cc(O)c12
IC50 (Alpha glucosidase [3]): 35.2 µM

Structure (SMILES): CC1(C)C=Cc2c(cc3oc4ccc(O)cc4c(=O)c3c2O)O1
IC50 (Alpha-glucosidase [2]): > 100 µM

Structure (SMILES): CC1(C)C=Cc2c(cc3oc4c(O)c5c(cc4c(=O)c3c2O)C=CC(C)(C)O5)O1
IC50 (Alpha-glucosidase [2]): > 100 µM

Structure (SMILES): C=C(C)/C=C/c1c(O)cc2oc3cc(O)c(OC)c(C/C=C(\C)CC=C(C)C)c3c(=O)c2c1O
IC50 (Alpha-glucosidase [12]): 20.7 µM
IC50 (Alpha-glucosidase [7]): 10.7 µM

Structure (SMILES): C=C(C)/C=C/c1c(O)cc2oc3cc(O)c(O)c(/C=C/C(=C)C)c3c(=O)c2c1O
IC50 (Alpha-glucosidase [4]): 1.5 µM
IC50 (Alpha-glucosidase [5]): 17.5 µM
Ki (Alpha-glucosidase [6]): 1.4 µM

Structure (SMILES): CC(C)=CC/C(C)=C/Cc1c(O)c(CC=C(C)C)c2oc3c(O)ccc(O)c3c(=O)c2c1O
IC50 (Alpha-glucosidase [8]): 227 µM

Structure (SMILES): COC(=O)c1c(O)c(O)cc2oc3c(Cl)c(C)c(Cl)c(O)c3c(=O)c12
IC50 (Alpha-glucosidase [14]): 40 µM

Results, then the compound that gave them:

IC50 (Alpha-glucosidase [2]): > 100 µM
Structure (SMILES): CC(C)=CCc1c(O)cc2oc3ccc(O)cc3c(=O)c2c1O

IC50 (Alpha-glucosidase [7]): 12.4 µM
Structure (SMILES): COc1cc(O)c2c(=O)c3c(C/C=C(\C)CCC=C(C)C)c(OC)c(O)cc3oc2c1

inhibition (Alpha glucosidase [9]): 43.1%
Structure (SMILES): CC(C)=CC/C(C)=C/COc1cc(O)c2c(=O)c3ccccc3oc2c1

inhibition (Alpha glucosidase [10]): 98.8%
Structure (SMILES): COc1cc(O[C@H]2O[C@@H](CO)[C@H](O)[C@H](O)[C@@H]2O)c2c(=O)c3ccc(OC)c(OC)c3oc2c1

inhibition (Alpha glucosidase [9]): 42.1%
Structure (SMILES): COc1cc(OCC=C(C)C)c2c(=O)c3c(O)ccc(OC)c3oc2c1

IC50 (Alpha glucosidase [3]): 44.5 µM
Structure (SMILES): COc1cc(O)c2c(=O)c3c(OC)c(O)c(O)cc3oc2c1

IC50 (Alpha-glucosidase [4]): 14.4 µM
IC50 (Alpha-glucosidase [5]): 192 µM
Ki (Alpha-glucosidase [6]): 14.8 µM
Structure (SMILES): C=C(C)/C=C/c1c(OC)cc2oc3cc(O)c(OC)c(/C=C/C(=C)C)c3c(=O)c2c1O

inhibition (Rattus norvegicus): 50%
IC50 (Alpha glucosidase [13]): 76.98 µg/mL (≈ 182 µM)
Structure (SMILES): O=c1c2cc(O)c(O)cc2oc2c([C@H]3O[C@@H](CO)[C@H](O)[C@@H](O)[C@@H]3O)c(O)cc(O)c12

IC50 (Alpha-glucosidase [4]): 21 µM
IC50 (Alpha-glucosidase [5]): 191.2 µM
Ki (Alpha-glucosidase [6]): 18.1 µM
Structure (SMILES): C=C(C)C1Cc2c(cc3oc4cc(O)c(OC)c(CC=C(C)C)c4c(=O)c3c2O)O1 (stereo not drawn) [MANGOSTENONE F]

From ChEMBL document CHEMBL5244222, “A comprehensive review on xanthone derivatives as α-glucosidase inhibitors” (Eur J Med Chem, 2018)
